In patent US9085603B2, “Progesterone receptor antagonists” (Bayer Intellectual Property GmbH, priority 2010, dated 2015) one finds IC50 data, which are given here for 21 compounds.

As usually defined, the IC50 is the concentration at which inhibition is half-maximal.

This assay addresses T1, human progesterone receptor A (Homo sapiens, UniProt P06401).
T1 construct: expressed in transfected cells; host or cells: SK-N-MC human neuroblastoma cells, stably transfected with pRChPR-A-neo and pMMTV-LUC
T1 sequence (P06401 1-769 isoform P06401-2): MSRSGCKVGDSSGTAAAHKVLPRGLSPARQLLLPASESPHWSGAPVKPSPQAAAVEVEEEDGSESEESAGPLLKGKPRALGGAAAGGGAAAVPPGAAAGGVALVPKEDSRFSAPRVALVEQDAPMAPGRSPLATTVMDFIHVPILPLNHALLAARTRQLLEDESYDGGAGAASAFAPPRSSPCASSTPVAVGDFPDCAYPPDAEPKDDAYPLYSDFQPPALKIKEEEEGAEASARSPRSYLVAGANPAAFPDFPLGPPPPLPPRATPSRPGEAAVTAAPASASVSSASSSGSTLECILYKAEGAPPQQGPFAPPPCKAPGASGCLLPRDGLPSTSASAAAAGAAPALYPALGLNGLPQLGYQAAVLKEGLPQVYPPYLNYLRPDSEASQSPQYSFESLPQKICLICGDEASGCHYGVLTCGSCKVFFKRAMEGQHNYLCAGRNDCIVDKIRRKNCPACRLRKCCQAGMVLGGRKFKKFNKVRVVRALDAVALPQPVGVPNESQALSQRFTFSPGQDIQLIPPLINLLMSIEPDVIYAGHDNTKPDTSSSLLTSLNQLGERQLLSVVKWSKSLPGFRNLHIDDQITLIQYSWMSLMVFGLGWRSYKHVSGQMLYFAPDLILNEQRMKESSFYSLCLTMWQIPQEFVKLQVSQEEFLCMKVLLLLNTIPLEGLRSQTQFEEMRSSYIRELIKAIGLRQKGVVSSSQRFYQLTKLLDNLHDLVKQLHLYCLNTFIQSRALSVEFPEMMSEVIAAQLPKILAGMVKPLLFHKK
Put plainly: Progesterone receptor antagonistic effect in stably transfected SK-N-MC cells, MTV-LUC reporter (PR-A). Format: cell-based. The settings on record: antagonism of 0.1 nmol/l promegestone, luciferase reporter, 24 hours. As for the experimental part: Progesterone Receptor Antagonistic Effect in Stable Transfectants of Human Neuroblastoma Cells (SK-N-MC cells) with the Human Progesterone A or Progesterone B Receptor and a MTV-LUC Reporter Construct
SK-N-MC cells (human neuroblastoma cells), which have been stably transfected with plasmids which express the human progesterone receptor B (pRChPR-B-neo) or the human progesterone receptor A (pRChPR-A-neo) and a reporter construct (pMMTV-LUC), were incubated for 24 hours either in the absence (negative control) or in the presence of increasing amounts of the particular test compound (0.01 nmol/l, 0.1 nmol/l, 1 nmol/l, 10 nmol/l, 100 nmol/l and 1 μmol/l) in order to determine the agonistic efficacy. As a positive control of the reporter gene induction, the cells were treated with the synthetic gestagen promegestone (0.01 nmol/l, 0.1 nmol/l, 1 nmol/l, 10 nmol/l, 100 nmol/l and 1 μmol/l). To determine the antagonistic activity, the cells were treated with 0.1 nmol/l of promegestone and additionally with increasing amounts of the particular test compound (0.01 nmol/l, 0.1 nmol/l, 1 nmol/l, 10 nmol/l, 100 nmol/l and 1 μmol/l). The activity of the reporter gene LUC (LUC=luciferase) was determined in the cell lysates and measured as RLU (relative light units). All measurement values are given as percentage efficacy and as EC50 or IC50 concentrations.
In general terms: A reporter such as luciferase makes a cellular process visible.
The compound `C[C@]12C[C@H](c3ccc(CNc4ccc(S(N)(=O)=O)cc4)cc3)C3=C4CCC(=O)C=C4CC[C@H]3[C@@H]1CC[C@@]2(O)C(F)(F)C(F)(F)F` [Example 18, 4-({4-[(11β,17β)-17-Hydroxy-3-oxo-17-(pentafluoroethyl)estra-4,9-dien-11-yl]benzyl}amino)benzenesulphonamide] displayed a 50% inhibitory concentration (IC50) of 0.51 nM.
With `C[C@]12C[C@H](c3ccc(CNc4cccnc4)cc3)C3=C4CCC(=O)C=C4CC[C@H]3[C@@H]1CC[C@@]2(O)C(F)(F)C(F)(F)F` [Example 19, (11β,17β)-17-Hydroxy-17-(pentafluoroethyl)-11-{4-[(pyridin-3-ylamino)methyl]phenyl}estra-4,9-dien-3-one] the figure was 0.94 nM.
Compound `C[C@]12C[C@H](c3ccc(CNc4ccccc4)cc3)C3=C4CCC(=O)C=C4CCC3C1CC[C@@]2(O)C(F)(F)C(F)(F)F` (stereo partly drawn) [Example 20, (11β,17β)-11-[4-(Anilinomethyl)phenyl]-17-hydroxy-17-(pentafluoroethyl)estra-4,9-dien-3-one] showed an IC50 of 1.64 nM.
With `COc1ccccc1NCc1ccc([C@H]2C[C@@]3(C)[C@@H](CC[C@@]3(O)C(F)(F)C(F)(F)F)[C@@H]3CCC4=CC(=O)CCC4=C32)cc1` [Example 21, (11β,17β)-17-Hydroxy-11-(4-{[(2-methoxyphenyl)amino]methyl}phenyl)-17-(pentafluoroethyl)estra-4,9-dien-3-one] the figure was 6.06 nM; with `COc1cccc(NCc2ccc([C@H]3C[C@@]4(C)[C@@H](CC[C@@]4(O)C(F)(F)C(F)(F)F)[C@@H]4CCC5=CC(=O)CCC5=C43)cc2)c1` [Example 22, (11β,17β)-17-Hydroxy-11-(4-{[(3-methoxyphenyl)amino]methyl}phenyl)-17-(pentafluoroethyl)estra-4,9-dien-3-one], 2.52 nM.
With `C[C@]12C[C@H](c3ccc(CNc4ccc(Cl)cc4)cc3)C3=C4CCC(=O)C=C4CCC3C1CC[C@@]2(O)C(F)(F)C(F)(F)F` (stereo partly drawn) [Example 23, (11β,17β)-11-(4-{[(4-Chlorophenyl)amino]methyl}phenyl)-17-hydroxy-17-(pentafluoroethyl)estra-4,9-dien-3-one] the figure was 2.07 nM; with `CCN(CC)Cc1ccc([C@H]2C[C@@]3(C)C(CC[C@@]3(O)C(F)(F)C(F)(F)F)C3CCC4=CC(=O)CCC4=C32)cc1` (stereo partly drawn) [Example 24, (11β,17β)-11-{4-[(Diethylamino)methyl]phenyl}-17-hydroxy-17-(pentafluoroethyl)estra-4,9-dien-3-one], 51 nM.
With `C[C@]12C[C@H](c3ccc(CN4CCN(c5ccccc5)CC4)cc3)C3=C4CCC(=O)C=C4CC[C@H]3[C@@H]1CC[C@@]2(O)C(F)(F)C(F)(F)F` [Example 25, (11β,17β)-17-Hydroxy-17-(pentafluoroethyl)-11-{4-[(4-phenylpiperazin-1-yl)methyl]phenyl}estra-4,9-dien-3-one] the figure was 3.06 nM; with `CN(Cc1ccncc1)Cc1ccc([C@H]2C[C@@]3(C)[C@@H](CC[C@@]3(O)C(F)(F)C(F)(F)F)[C@@H]3CCC4=CC(=O)CCC4=C32)cc1` [Example 26, (11β,17β)-17-Hydroxy-11-(4-{[methyl(pyridin-4-ylmethyl)amino]methyl}phenyl)-17-(pentafluoroethyl)estra-4,9-dien-3-one], 4.65 nM.
`CN(C)CCN(C)Cc1ccc([C@H]2C[C@@]3(C)C(CC[C@@]3(O)C(F)(F)C(F)(F)F)C3CCC4=CC(=O)CCC4=C32)cc1` (stereo partly drawn) [Example 27, (11β,17β)-11-[4-({[2-(Dimethylamino)ethyl](methyl)amino}methyl)phenyl]-17-hydroxy-17-(pentafluoroethyl)estra-4,9-dien-3-one] came in with an IC50 of 3.52 nM.
For `COC(=O)c1ccccc1NCc1ccc([C@H]2C[C@@]3(C)[C@@H](CC[C@@]3(O)C(F)(F)C(F)(F)F)[C@@H]3CCC4=CC(=O)CCC4=C32)cc1` [Example 28, Methyl 2-({4-[(11β,17β)-17-hydroxy-3-oxo-17-(pentafluoroethyl)estra-4,9-dien-11-yl]benzyl}amino)benzoate] the value was 5.05 nM.
With `COC(=O)c1ccc(NCc2ccc([C@H]3C[C@@]4(C)[C@@H](CC[C@@]4(O)C(F)(F)C(F)(F)F)[C@@H]4CCC5=CC(=O)CCC5=C43)cc2)cc1` [Example 29, Methyl 4-({4-[(11β,17β)-17-hydroxy-3-oxo-17-(pentafluoroethyl)estra-4,9-dien-11-yl]benzyl}amino)benzoate] the figure was 1.19 nM; with `C[C@]12C[C@H](c3ccc(CN4CCc5ccccc5C4)cc3)C3=C4CCC(=O)C=C4CCC3C1CC[C@@]2(O)C(F)(F)C(F)(F)F` (stereo partly drawn) [Example 30, (11β,17β)-11-[4-(3,4-Dihydroisoquinolin-2(1H)-ylmethyl)phenyl]-17-hydroxy-17-(pentafluoroethyl)estra-4,9-dien-3-one], 2.35 nM; with `C[C@]12C[C@H](c3ccc(CN4CCN(Cc5ccccc5)CC4)cc3)C3=C4CCC(=O)C=C4CCC3C1CC[C@@]2(O)C(F)(F)C(F)(F)F` (stereo partly drawn) [Example 31, (11β,17β)-11-{4-[(4-Benzylpiperazin-1-yl)methyl]phenyl}-17-hydroxy-17-(pentafluoroethyl)estra-4,9-dien-3-one], 4.52 nM.
With `C[C@]12C[C@H](c3ccc(CNc4ccc(C(N)=O)cc4)cc3)C3=C4CCC(=O)C=C4CC[C@H]3[C@@H]1CC[C@@]2(O)C(F)(F)C(F)(F)F` [Example 32, 4-({4-[(11β,17β)-17-Hydroxy-3-oxo-17-(pentafluoroethyl)estra-4,9-dien-11-yl]benzyl}amino)benzamide] the figure was 0.78 nM; with `CN(CCc1ccccc1)Cc1ccc([C@H]2C[C@@]3(C)[C@@H](CC[C@@]3(O)C(F)(F)C(F)(F)F)[C@@H]3CCC4=CC(=O)CCC4=C32)cc1` [Example 33, (11β,17β)-17-Hydroxy-11-(4-{[methyl(2-phenylethyl)amino]methyl}phenyl)-17-(pentafluoroethyl)estra-4,9-dien-3-one], 5.57 nM.
In turn, `C[C@]12C[C@H](c3ccc(CN4CCN(CCc5ccccc5)CC4)cc3)C3=C4CCC(=O)C=C4CC[C@H]3[C@@H]1CC[C@@]2(O)C(F)(F)C(F)(F)F` [Example 34, (11β,17β)-17-Hydroxy-17-(pentafluoroethyl)-11-(4-{[4-(2-phenylethyl)piperazin-1-yl]methyl}phenyl)estra-4,9-dien-3-one] showed an IC50 of 5.55 nM.
With `C[C@]12C[C@H](c3ccc(CN4CCN(c5cnccn5)CC4)cc3)C3=C4CCC(=O)C=C4CC[C@H]3[C@@H]1CC[C@@]2(O)C(F)(F)C(F)(F)F` [Example 35, (11β,17β)-17-Hydroxy-17-(pentafluoroethyl)-11-(4-{[4-(pyrazin-2-yl)piperazin-1-yl]methyl}phenyl)estra-4,9-dien-3-one] the figure was 0.68 nM; with `C[C@]12C[C@H](c3ccc(CN4CCN(CCN5CCCC5)CC4)cc3)C3=C4CCC(=O)C=C4CC[C@H]3[C@@H]1CC[C@@]2(O)C(F)(F)C(F)(F)F` [Example 36, (11β,17β)-17-Hydroxy-17-(pentafluoroethyl)-11-[4-({4-[2-(pyrrolidin-1-yl)ethyl]piperazin-1-yl}methyl)phenyl]estra-4,9-dien-3-one], 33.7 nM.
For `C[C@]12C[C@H](c3ccc(CN4CCN(Cc5ccncc5)CC4)cc3)C3=C4CCC(=O)C=C4CC[C@H]3[C@@H]1CC[C@@]2(O)C(F)(F)C(F)(F)F` [Example 37, (11β,17β)-17-Hydroxy-17-(pentafluoroethyl)-11-(4-{[4-(pyridin-4-ylmethyl)piperazin-1-yl]methyl}phenyl)estra-4,9-dien-3-one] the value was 2.33 nM.
For `CC(=O)Nc1ccc(NCc2ccc([C@H]3C[C@@]4(C)[C@@H](CC[C@@]4(O)C(F)(F)C(F)(F)F)[C@@H]4CCC5=CC(=O)CCC5=C43)cc2)cc1` [Example 38, N-[4-({4-[(11β,17β)-17-Hydroxy-3-oxo-17-(pentafluoroethyl)estra-4,9-dien-11-yl]benzyl}amino)phenyl]acetamide] the value was 0.66 nM.
